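Following 48 hours of exposure in 96-well plates, responses at five concentrations were used to interpolate endpoints linearly. TGI marks complete inhibition of growth.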
Columns and labels:
Experiment in all cases: growth of human tumour cells (NCI), 48 h
ACHN renal = system: ACHN renal
HCT-15 colon = system: HCT-15 colon
HT29 colon = system: HT29 colon
K-562 leukemia = system: K-562 leukemia
KM12 colon = system: KM12 colon
MDA-N = system: MDA-N
PC-3 prostate = system: PC-3 prostate
SN12C renal = system: SN12C renal
SNB-75 CNS = system: SNB-75 CNS
T-47D breast = system: T-47D breast

Compound | TGI (ACHN renal) [µM] | TGI (HCT-15 colon) [µM] | TGI (HT29 colon) [µM] | TGI (K-562 leukemia) [µM] | TGI (KM12 colon) [µM] | TGI (MDA-N) [µM] | TGI (PC-3 prostate) [µM] | TGI (SN12C renal) [µM] | TGI (SNB-75 CNS) [µM] | TGI (T-47D breast) [µM]
CC(C)(C)c1ccc(OCCOc2ccc(C(C)(C)C)cc2NC=O)c(NC=O)c1 | > 73.2 | 26.4 | 7.32 | > 43.7 | 16.2 | 27.3 | > 100 | 30.8 | > 78.7 | > 86
CC(=O)OC1CC[C@@]2(C)C(=CC[C@@H]3[C@@H]2CC[C@]2(C)Nc4c(cnn4-c4ccc(F)cc4)C[C@@H]32)C1 (stereo not given in full) | > 100 | > 100 | > 100 | > 100 | > 84.1 | > 100 | > 100 | > 100 | 66.5 | > 100
C=c1c2ccccc2oc2nc3[nH]c(N)c(C#N)c(N)c3c(=N)c12 | > 100 | > 100 | 80.8 | > 100 | 56.4 | > 100 | 66.9 | > 100 | 90.3 | > 100
Cc1cccc(N=Nc2ccc(O)c(CN(C)C)c2)c1 | 34.9 | 80.6 | 53.8 | 16.1 | 34.4 | 75.2 | > 100 | > 100 | 94.5 | 57.5
Cc1ccnc2[nH]c(-c3ccc(Cl)cc3)cc(=O)c12 | > 100 | > 100 | > 100 | 60 | > 100 | 4.59 | > 100 | > 100 | 25.8 | > 100
c1ccc(C(OCCN2CC3CCC(C2)N3)c2ccccc2)cc1 | > 100 | > 100 | > 100 | > 100 | > 100 | 79.6 | > 100 | > 100 | > 100 | > 100
C1=Nc2ccc(cc2)-c2ccc(cc2)N=Cc2ccccc2OCc2cccc(n2)COc2ccccc21 | > 72.9 | > 100 | > 100 | > 100 | > 100 | > 100 | > 100 | > 100 | 12.1 | > 100
CN1CN(c2ccccc2)C2(CCN(C(=O)OC(C)(C)C)CC2)C1=O | > 100 | > 100 | > 100 | > 100 | > 100 | > 100 | > 100 | > 100 | > 100 | > 100
CC(=O)[C@H]1CC[C@@H]2[C@]1(C)CC=C1[C@]23C=C[C@]2(C[C@@H](O)CC[C@]12C)C(C(=O)O)C3C(=O)O (stereo not given in full) | > 100 | > 100 | > 100 | > 100 | > 100 | > 100 | > 100 | > 100 | > 100 | > 100
CN1C(=O)c2c(c3c4ccccc4n(C)c3c3c2c2ccccc2n3C)C1=O | > 100 | > 100 | > 100 | > 100 | > 100 | > 100 | > 100 | > 100 | > 100 | > 100
CCc1c[n+]2c(cc1C1=CN3c4ccccc4[C@]45CCN6C/C(=C/CO)[C@H](C[C@H]64)[C@@H]([C@@H]1O)[C@H]35)-c1[nH]c3ccccc3c1CC2 | > 50 | > 50 | > 50 | > 50 | > 50 | > 50 | > 50 | > 50 | > 50 | > 50
CCOP(=O)(OCC)C(Cc1cn(S(=O)(=O)c2ccc(C)cc2)cn1)C(=O)O (stereo not given) | > 100 | > 100 | > 100 | > 100 | > 100 | > 100 | > 100 | > 100 | > 100 | > 100
COc1cc(/C=[N+](\[O-])c2ccccc2Cl)ccc1OC(=S)S | > 100 | > 100 | > 100 | > 100 | 41.8 | > 100 | > 100 | > 100 | 63.6 | 53.4
O=C1/C(=C/Cc2ccco2)N=C(c2ccccc2)N1c1nc2ccc(Sc3ccccc3)cc2[nH]1 | 44.9 | > 100 | 73.6 | > 100 | 45.5 | 25 | 53.6 | 34.9 | 75.7 | > 100
Cc1cc2nc3c(C)c4ccccc4c(C)n3c2cc1C | > 10 | 6.14 | > 10 | > 10 | > 10 | 7.8 | > 10 | > 10 | > 10 | > 10
